Read-outs that look alike come from different tables or passages of the source. Positions of bridges follow the written chain, without caps; N, C: chain ends. Non-standard residues stand in square brackets, D forms with d. Residues, ends and D or L forms follow the SMILES beside them. Nle = CCCC[C@H](N)C(=O)O
How the values were obtained:
Frog (Rana pipiens) Skin [1] = assay type: cell-based
Protocol: (§1) The biological potencies of alpha-MSH, the linear and cyclic analogues were determined by their ability to stimulate melanosome dispersion in vitro in the frog and lizard bioassays. This in vitro assay provides clear cut dose response curves (between 2.5×10^-11 and 4×10^-10 M) and can detect minimal concentration of alpha-MSH of about 10^-11 M. The assay is based upon the centrifugal dispersion of melanosomes (melanin granules) within the dendritic processes of integumental dermal melanophores leading to darkening of the skin. All the test solutions were prepared via serial dilutions from a stock solution (10^-4 M). The frogs (Rana pipiens) used in these evaluations were obtained from Kons Scientific, Germantown, Wis., and the lizards (Anolis carolinensis) were from the Snake Farm, La Place, La.

[2] = tested on: Lizard (Anolis carolinensis) Skin; assay type: cell-based
Protocol: as §1

[3] = tested on: Lizard (Anolis carolinensis) Skin; conditions: relative to alpha-MSH = 1.0; selective fragments of alpha-MSH, previous research; cited from earlier work
Frog (Rana pipiens) Skin [4] = conditions: cited from earlier work; for Relative Potency Frog: relative to alpha-MSH = 1.0, selective fragments of alpha-MSH, previous research
[5] = cyclic analogues, alpha-MSH = 1.0

| Compound | Residual Activity Frog (prolonged action) (Frog (Rana pipiens) Skin [1]; cyclic analogues) | Biological Potency Frog (Frog (Rana pipiens) Skin [1]; [5]) | Residual Activity Lizard (prolonged action) ([2]; cyclic analogues) | Biological Potency Lizard [2, 5] | Relative Potency Lizard [3] | Relative Potency Frog (Frog (Rana pipiens) Skin [4]) | also measured |
| --- | --- | --- | --- | --- | --- | --- | --- |
| CCCC[C@H](NC(C)=O)C(=O)N[C@@H](CC(=O)O)C(=O)N[C@@H](Cc1c[nH]cn1)C(=O)N[C@H](Cc1ccccc1)C(=O)N[C@@H](CCCNC(=N)N)C(=O)N[C@@H](Cc1c[nH]c2ccccc12)C(=O)N[C@@H](CCN)C(N)=O [Analogue 11] |  |  |  |  |  |  | Biological Potency Frog (Frog (Rana pipiens) Skin [1]): 0.9; Residual Activity Frog (prolonged action) (Frog (Rana pipiens) Skin [1]; linear analogues): P(-); Biological Potency Lizard [2]: 50.0; Residual Activity Lizard (prolonged action) ([2]; linear analogues): P(-) |
| CCCC[C@H](NC(C)=O)C(=O)N[C@@H](CC(=O)O)C(=O)N[C@@H](Cc1c[nH]cn1)C(=O)N[C@H](Cc1ccccc1)C(=O)N[C@@H](CCCNC(=N)N)C(=O)N[C@@H](Cc1c[nH]c2ccccc12)C(=O)N[C@@H](CN)C(N)=O [Analogue 12] |  |  |  |  |  |  | Biological Potency Frog (Frog (Rana pipiens) Skin [1]): 0.2; Residual Activity Frog (prolonged action) (Frog (Rana pipiens) Skin [1]; linear analogues): P(-); Biological Potency Lizard [2]: 8.0; Residual Activity Lizard (prolonged action) ([2]; linear analogues): P(-) |
| CCCC[C@H](NC(C)=O)C(=O)N[C@@H](CCC(=O)O)C(=O)N[C@@H](Cc1c[nH]cn1)C(=O)N[C@@H](Cc1ccccc1)C(=O)N[C@@H](CCCNC(=N)N)C(=O)N[C@@H](Cc1c[nH]c2ccccc12)C(=O)N[C@@H](CCCCN)C(N)=O [Analogue 13] |  |  |  |  |  |  | Biological Potency Frog (Frog (Rana pipiens) Skin [1]): 0.001; Residual Activity Frog (prolonged action) (Frog (Rana pipiens) Skin [1]; linear analogues): P(+); Biological Potency Lizard [2]: 0.08; Residual Activity Lizard (prolonged action) ([2]; linear analogues): P(-) |
| CCCC[C@H](NC(C)=O)C(=O)N[C@H]1CCC(=O)NCCCC[C@@H](C(=O)NCC(=O)N2CCC[C@H]2C(=O)N[C@H](C(N)=O)C(C)C)NC(=O)[C@H](Cc2c[nH]c3ccccc23)NC(=O)[C@H](CCCNC(=N)N)NC(=O)[C@@H](Cc2ccccc2)NC(=O)[C@H](Cc2c[nH]cn2)NC1=O [Analogue 15] (Ac-[Nle]EH[dF]RWKGPV-NH2; lactam 2-7) | p(+) | 1.0 | p(+) | 6.0 |  |  |  |
| CCCC[C@H](NC(C)=O)C(=O)N[C@H]1CCC(=O)NCCCC[C@@H](C(N)=O)NC(=O)[C@H](Cc2c[nH]c3ccccc23)NC(=O)[C@H](CCCNC(=N)N)NC(=O)[C@@H](Cc2ccccc2)NC(=O)[C@H](Cc2c[nH]cn2)NC1=O [Analogue 16] | p(+) | 0.5 | p(+) | 9.0 |  |  |  |
| CCCC[C@H](NC(C)=O)C(=O)N[C@H]1CC(=O)NCCC[C@@H](C(N)=O)NC(=O)[C@H](Cc2c[nH]c3ccccc23)NC(=O)[C@H](CCCNC(=N)N)NC(=O)[C@@H](Cc2ccccc2)NC(=O)[C@H](Cc2c[nH]cn2)NC1=O [Analogue 18] | p(-) | 1.0 | p(-) | 20.0 |  |  |  |
| CCCC[C@H](NC(C)=O)C(=O)N[C@H]1CC(=O)NCC[C@@H](C(N)=O)NC(=O)[C@H](Cc2c[nH]c3ccccc23)NC(=O)[C@H](CCCNC(=N)N)NC(=O)[C@@H](Cc2ccccc2)NC(=O)[C@H](Cc2c[nH]cn2)NC1=O [Analogue 19] | p(-) | 1.0 | p(-) | 5.0 |  |  |  |
| CCCC[C@H](NC(C)=O)C(=O)N[C@H]1CC(=O)NC[C@@H](C(N)=O)NC(=O)[C@H](Cc2c[nH]c3ccccc23)NC(=O)[C@H](CCCNC(=N)N)NC(=O)[C@@H](Cc2ccccc2)NC(=O)[C@H](Cc2c[nH]cn2)NC1=O [Analogue 20] | p(-) | 0.01 | p(-) | 5.0 |  |  |  |
| Ac--[Nle^4 ]-alpha-MSH4-10 NH2 |  |  |  |  | 0.06 | 0.002 |  |
| Ac--[Nle^4 ]-alpha-MSH4-11 NH2 |  |  |  |  | 1.0 | 0.002 |  |
| Ac--[Nle^4, D--Phe^7 ]-alpha-MSH4-10 NH2 |  |  |  |  | 10.0 | 0.02 |  |
| Ac--[Nle^4,D--Phe^7 ]-alpha-MSH1-13 NH2 |  |  |  |  | 5.0 | 60.0 |  |
| Ac-Met-Glu-His-Phe-Arg-Trp-Gly-NH2 [Ac-alpha-MSH4-10 NH2] |  |  |  |  | 0.004 | 0.0003 | melanocyte stimulating activity in frog skin (Frog (Rana pipiens) Skin [4]; compared to the native hormone): weak agonist |
| Ac[Nle^4, D--Phe^7 ]-alpha-MSH4-11 NH2 |  |  |  |  | 8.0 | 0.16 |  |
